Where “and” joins values, the source holds several entries; their conditions need not be identical. Equal entries are not always repeated. ± gives the expanded uncertainty stated by the source.
Columns and labels:
[1] = refractive index (Na D-line) (dimensionless); settings: 101.33 kPa, Liquid, Standard Abbe refractometry
[2] = 101.33 kPa, Liquid; for speed of sound: Sing-around technique in a fixed-path interferometer; for mass density: Vibrating tube method; for viscosity: Concentric cylinders viscometry

CCOCCOCCO [3,6-dioxa-1-octanol]
Settings | mass density, [2] | refractive index, [1] | speed of sound, [2] [m/s] | viscosity, [2] [mPa·s]
283.15 K | 997.1 ± 4.1 kg/m3 | 1.4311 ± 0.0007 | 1428.9 ± 2.3 | –
288.15 K | 993.9 ± 4.1 kg/m3 and 992.6 ± 4.1 kg/m3 | 1.42916 ± 0.0007 | 1410.5 ± 2.3 | 5.157 ± 0.21
293.15 K | 989.4 ± 4.1 kg/m3 and 988.2 ± 4.1 kg/m3 | 1.42711 ± 0.0007 | 1392.6 ± 2.3 | 4.466 ± 0.18
298.15 K | 983.7 ± 4.1 kg/m3 and 984.9 ± 4.1 kg/m3 | 1.42501 ± 0.0007 | 1374.6 ± 2.3 | 3.811 ± 0.16
303.15 K | 979.3 ± 4.1 kg/m3 and 980.4 ± 4.1 kg/m3 | 1.4229 ± 0.0007 | 1356.8 ± 2.3 | 3.328 ± 0.14
308.15 K | 974.8 ± 4.1 kg/m3 and 976 ± 4.1 kg/m3 | – | 1339 ± 2.3 | 2.933 ± 0.12
313.15 K | 970.3 ± 4.1 kg/m3 and 971.5 ± 4.1 kg/m3 | 1.41887 ± 0.0007 | 1321.7 ± 2.3 | 2.592 ± 0.11
318.15 K | 967 ± 4.1 kg/m3 | – | – | 2.331 ± 0.097
323.15 K | 961.3 ± 4.1 kg/m3 and 962.5 ± 4.1 kg/m3 | 1.41483 ± 0.0007 | 1286.9 ± 2.3 | 2.099 ± 0.087
328.15 K | 958.1 ± 4.1 kg/m3 | – | – | 1.901 ± 0.079
333.15 K | 952.2 ± 4.1 kg/m3 and 953.5 ± 4.1 kg/m3 | 1.41082 ± 0.0007 | 1252.6 ± 2.3 | 1.718 ± 0.071
338.15 K | 949 ± 4.1 kg/m3 | – | – | 1.583 ± 0.066
343.15 K | 944.4 ± 4.1 kg/m3 and 943.1 ± 4.1 kg/m3 | 1.40683 ± 0.0007 | 1218.9 ± 2.3 | 1.456 ± 0.061
348.15 K | 939.9 ± 4.1 kg/m3 | – | – | 1.343 ± 0.056
353.15 K | 935.3 ± 4.1 kg/m3 | 1.40276 ± 0.0007 | – | 1.225 ± 0.051
358.15 K | 930.7 ± 4.1 kg/m3 | – | – | 1.153 ± 0.048
363.15 K | 926.1 ± 4.1 kg/m3 | – | – | 1.072 ± 0.045
368.15 K | 921.4 ± 4.1 kg/m3 | – | – | 0.997 ± 0.042
373.15 K | 916.8 ± 4.1 kg/m3 | – | – | 0.921 ± 0.038

CCOCCOCCOCC [diethylene glycol diethyl ether]
Settings | mass density, [2] | refractive index, [1] | speed of sound, [2] [m/s] | viscosity, [2] [mPa·s]
283.15 K | 917 ± 4.1 kg/m3 | 1.41658 ± 0.0007 | 1303.4 ± 2.3 | –
288.15 K | 914.4 ± 4.1 kg/m3 and 912.2 ± 4.1 kg/m3 | 1.41428 ± 0.0007 | 1283.2 ± 2.3 | 1.483 ± 0.062
293.15 K | 909.6 ± 4.1 kg/m3 and 907.4 ± 4.1 kg/m3 | 1.41202 ± 0.0007 | 1263.1 ± 2.3 | 1.353 ± 0.056
298.15 K | 902.6 ± 4.1 kg/m3 and 904.7 ± 4.1 kg/m3 | 1.40978 ± 0.0007 | 1243.3 ± 2.3 | 1.254 ± 0.052
303.15 K | 897.7 ± 4.1 kg/m3 and 899.8 ± 4.1 kg/m3 | 1.40749 ± 0.0007 | 1223.4 ± 2.3 | 1.156 ± 0.048
308.15 K | 892.9 ± 4.1 kg/m3 and 895 ± 4.1 kg/m3 | – | 1203.9 ± 2.3 | 1.067 ± 0.044
313.15 K | 888.1 ± 4.1 kg/m3 and 890.1 ± 4.1 kg/m3 | 1.40296 ± 0.0007 | 1184.1 ± 2.3 | 0.9874 ± 0.041
318.15 K | 885.3 ± 4.1 kg/m3 | – | – | 0.916 ± 0.038
323.15 K | 878.4 ± 4.1 kg/m3 and 880.4 ± 4.1 kg/m3 | 1.39838 ± 0.0007 | 1145.1 ± 2.3 | 0.852 ± 0.036
328.15 K | 875.6 ± 4.1 kg/m3 | – | – | 0.795 ± 0.033
333.15 K | 868.7 ± 4 kg/m3 and 870.7 ± 4.1 kg/m3 | 1.39382 ± 0.0007 | 1107.9 ± 2.3 | 0.744 ± 0.031
338.15 K | 865.9 ± 4 kg/m3 | – | – | 0.699 ± 0.029
343.15 K | 861 ± 4 kg/m3 and 858.9 ± 4 kg/m3 | 1.38929 ± 0.0007 | 1071.6 ± 2.3 | 0.658 ± 0.028
348.15 K | 856.1 ± 4 kg/m3 | – | – | 0.621 ± 0.026
353.15 K | 851.2 ± 4 kg/m3 | 1.38474 ± 0.0007 | – | 0.587 ± 0.025
358.15 K | 846.3 ± 4 kg/m3 | – | – | 0.556 ± 0.023
363.15 K | 841.4 ± 4 kg/m3 | – | – | 0.526 ± 0.022
368.15 K | 836.5 ± 4 kg/m3 | – | – | 0.498 ± 0.021
373.15 K | 831.6 ± 4 kg/m3 | – | – | 0.47 ± 0.02

OCCOCCO [diethylene glycol]
Settings | mass density, [2] | refractive index, [1] | speed of sound, [2] [m/s] | viscosity, [2] [mPa·s]
283.15 K | 1123.3 ± 2 kg/m3 | 1.45019 ± 0.00061 | 1615.9 ± 1.6 | –
288.15 K | 1121.4 ± 2 kg/m3 and 1119.8 ± 2 kg/m3 | 1.4486 ± 0.00061 | 1603.6 ± 1.6 | 47.14 ± 1.9
293.15 K | 1117.8 ± 2 kg/m3 and 1116.2 ± 2 kg/m3 | 1.44702 ± 0.00061 | 1591.4 ± 1.6 | 36.02 ± 1.5
298.15 K | 1112.7 ± 2 kg/m3 and 1114.2 ± 2 kg/m3 | 1.4454 ± 0.00061 | 1579.2 ± 1.6 | 28.23 ± 1.1
303.15 K | 1109.1 ± 2 kg/m3 and 1110.6 ± 2 kg/m3 | 1.44379 ± 0.00061 | 1566.9 ± 1.6 | 22.48 ± 0.91
308.15 K | 1105.5 ± 2 kg/m3 and 1107 ± 2 kg/m3 | – | 1554.9 ± 1.6 | 18.18 ± 0.74
313.15 K | 1101.9 ± 2 kg/m3 and 1103.4 ± 2 kg/m3 | 1.44068 ± 0.00061 | 1542.8 ± 1.6 | 14.85 ± 0.6
318.15 K | 1099.7 ± 2 kg/m3 | – | – | 12.4 ± 0.5
323.15 K | 1094.7 ± 2 kg/m3 and 1096.1 ± 2 kg/m3 | 1.43745 ± 0.00061 | 1518.8 ± 1.6 | 10.42 ± 0.42
328.15 K | 1092.5 ± 2 kg/m3 | – | – | 8.849 ± 0.36
333.15 K | 1087.4 ± 2 kg/m3 and 1088.8 ± 2 kg/m3 | 1.43424 ± 0.00061 | 1494.5 ± 1.6 | 7.57 ± 0.31
338.15 K | 1085.2 ± 2 kg/m3 | – | – | 6.561 ± 0.27
343.15 K | 1081.5 ± 2 kg/m3 and 1080 ± 2 kg/m3 | 1.43105 ± 0.00061 | 1470.1 ± 1.6 | 5.718 ± 0.23
348.15 K | 1077.8 ± 2 kg/m3 | – | – | 5.019 ± 0.2
353.15 K | 1074.1 ± 2 kg/m3 | 1.42786 ± 0.00061 | – | 4.429 ± 0.18
358.15 K | 1070.3 ± 2 kg/m3 | – | – | 3.944 ± 0.16
363.15 K | 1066.6 ± 2 kg/m3 | – | – | 3.527 ± 0.14
368.15 K | 1062.8 ± 2 kg/m3 | – | – | 3.169 ± 0.13
373.15 K | 1059 ± 2 kg/m3 | – | – | 2.871 ± 0.12

OCCOCCOCCO [triethylene glycol]
Settings | mass density, [2] | refractive index, [1] | speed of sound, [2] [m/s] | viscosity, [2] [mPa·s]
283.15 K | 1131.3 ± 2 kg/m3 | 1.45944 ± 0.00061 | 1658.7 ± 1.6 | –
288.15 K | 1128.6 ± 2 kg/m3 and 1127.4 ± 2 kg/m3 | 1.45774 ± 0.00061 | 1642.8 ± 1.6 | 63.57 ± 2.6
293.15 K | 1124.6 ± 2 kg/m3 and 1123.5 ± 2 kg/m3 | 1.4561 ± 0.00061 | 1627.2 ± 1.6 | 48.05 ± 1.9
298.15 K | 1119.7 ± 2 kg/m3 and 1120.7 ± 2 kg/m3 | 1.45447 ± 0.00061 | 1611.5 ± 1.6 | 37.27 ± 1.5
303.15 K | 1115.8 ± 2 kg/m3 and 1116.8 ± 2 kg/m3 | 1.45283 ± 0.00061 | 1596.2 ± 1.6 | 29.41 ± 1.2
308.15 K | 1111.9 ± 2 kg/m3 and 1112.9 ± 2 kg/m3 | – | 1581.1 ± 1.6 | 23.6 ± 0.95
313.15 K | 1108 ± 2 kg/m3 and 1109 ± 2 kg/m3 | 1.44955 ± 0.00061 | 1566 ± 1.6 | 19.16 ± 0.78
318.15 K | 1105.1 ± 2 kg/m3 | – | – | 15.86 ± 0.64
323.15 K | 1100.2 ± 2 kg/m3 and 1101.2 ± 2 kg/m3 | 1.44626 ± 0.00061 | 1536.3 ± 1.6 | 13.25 ± 0.54
328.15 K | 1097.3 ± 2 kg/m3 | – | – | 11.19 ± 0.45
333.15 K | 1092.4 ± 2 kg/m3 and 1093.4 ± 2 kg/m3 | 1.44293 ± 0.00061 | 1506.8 ± 1.6 | 9.528 ± 0.38
338.15 K | 1089.5 ± 2 kg/m3 | – | – | 8.221 ± 0.33
343.15 K | 1085.6 ± 2 kg/m3 and 1084.5 ± 2 kg/m3 | 1.43956 ± 0.00061 | 1477.5 ± 1.6 | 7.137 ± 0.29
348.15 K | 1081.7 ± 2 kg/m3 | – | – | 6.243 ± 0.25
353.15 K | 1077.8 ± 2 kg/m3 | 1.43622 ± 0.00061 | – | 5.487 ± 0.22
358.15 K | 1073.8 ± 2 kg/m3 | – | – | 4.874 ± 0.2
363.15 K | 1069.8 ± 2 kg/m3 | – | – | 4.346 ± 0.18
368.15 K | 1065.9 ± 2 kg/m3 | – | – | 3.896 ± 0.16
373.15 K | 1061.9 ± 2 kg/m3 | – | – | 3.515 ± 0.14

— the NIST ThermoML archive (doi:10.1021/acs.jced.5b00662)
